Measurements published in US11254690B2, “PTEFb inhibiting macrocyclic compounds” (BAYER AKTIENGESELLSCHAFT, priority 2017, dated 2022).

Experiments:
Type in all cases: cell-based
Caco-2 cells = assay: Proliferation assay, Caco-2; details: Homo sapiens, Caco-2, 96 h; 4 days, crystal violet; read-out: Inhibition of Caco-2 cell proliferation IC50
Protocol: (§1) Cultivated tumour cells (HeLa, human cervical tumour cells, ATCC CCL-2; NCI-H460, human non-small cell lung carcinoma cells, ATCC HTB-177; DU 145, hormone-independent human prostate carcinoma cells, ATCC HTB-81; HeLa-MaTu-ADR, multidrug-resistant human cervical carcinoma cells, EPO-GmbH Berlin; Caco-2, human colorectal carcinoma cells, ATCC HTB-37; B16F10, mouse melanoma cells, ATCC CRL-6475) were plated at a density of 5,000 cells/well (DU145, HeLa-MaTu-ADR), 3,000 cells/well (NCI-H460, HeLa), 1,500 cells/well (Caco-2), or 1,000 cells/well (B16F10) in a 96-well multititer plate in 200 μL of their respective growth medium supplemented 10% fetal calf serum. After 24 hours, the cells of one plate (zero-point plate) were stained with crystal violet (see below), while the medium of the other plates was supplemented with the test substances in various concentrations (0 μM, as well as in the range of 0.0001-10 μM; the final concentration of the solvent dimethyl sulfoxide was adjusted to 0.1%) using a Hewlett-Packard HP D300 Digital Dispenser. The cells were incubated for 4 days in the presence of test substances. Cell proliferation was determined by staining the cells with crystal violet: the cells were fixed by adding 20 μl/measuring point of an 11% glutaric aldehyde solution for 15 minutes at room temperature. After three washing cycles of the fixed cells with water, the plates were dried at room temperature. The cells were stained by adding 100 μl/measuring point of a 0.1% crystal violet solution (pH 3.0). After three washing cycles of the stained cells with water, the plates were dried at room temperature. The dye was dissolved by adding 100 μl/measuring point of a 10% acetic acid solution. The extinction was determined by photometry at a wavelength of 595 nm. The change of cell number, in percent, was calculated by normalization of the measured values to the extinction values of the zero-point plate (=0%) and the extinction of the untreated ([…]) cells (=100%). The IC50 values (inhibitory concentration at 50% of maximal effect) were determined by means of a 4 parameter fit. A2780 human ovarian carcinoma cells (ECACC #93112519) and non-adherent MOLM-13 human acute myeloid leukemia cells (DSMZ ACC 554) were seeded at a density of 3,000 cell/well (A2780) or 5,000 cells/well (MOLM-13) in a 96-well multititer plate in 150 μL of growth medium supplemented 10% fetal calf serum. After 24 hours, cell viability of one plate (zero-point plate) was determined with the Cell Titre-Glo Luminescent Cell Viability Assay (Promega), while the medium of the other plates was supplemented with the test substances in various concentrations (0 μM, as well as in the range of 0.0001-10 μM; the final concentration of the solvent dimethyl sulfoxide was adjusted to 0.1%) using a Hewlett-Packard HP D300 Digital Dispenser. Cell viability was assessed after 72-hour exposure with the Cell Titre-Glo Luminescent Cell Viability Assay (Promega). IC50 values (inhibitory concentration at 50% of maximal effect) were determined by means of a 4 parameter fit on measurement data which were normalized to vehicle (DMSO) treated cells (=100%) and measurement readings taken immediately before compound exposure (=0%).

DU145 cells = assay: Proliferation assay, DU145; details: Homo sapiens, DU-145, 96 h; 4 days, crystal violet; read-out: Inhibition of DU145 cell proliferation IC50
Protocol: as §1

NCI-H460 cells = assay: Proliferation assay, NCI-H460; details: Homo sapiens, NCI-H460, 96 h; 4 days, crystal violet; read-out: Inhibition of NCI-H460 cell proliferation IC50
Protocol: as §1

Row | SMILES | IC50 (Caco-2 cells) [nM] | IC50 (DU145 cells) [nM] | IC50 (NCI-H460 cells) [nM]
1 | CS(=N)(=O)Cc1cc2nc(c1)OCCCCOc1cc(ccc1F)-c1cc(ncc1F)N2 (racemic) [Example 2, (rac)-3,20-difluoro-10-[(S-methylsulfonimidoyl)methyl]-13,18-dioxa-5,7,24-triazatetracyclo[17.3.1.1^2,6.1^8,12]pentacosa-1(23),2(25),3,5,8(24),9,11,19,21-nonaene] | 96 | 85 | 157
2 | CC(C)(C)OC(=O)N=S(C)(=O)Cc1cc2cc(c1)OCCCCOc1cc(ccc1F)-c1nc(ncc1F)N2 (racemic) [Example 3, (rac)-tert-butyl [{[3,20-difluoro-13,18-dioxa-5,7,25-triazatetracyclo[17.3.1.1^2,6.1^8,12]pentacosa-1(23),2(25),3,5,8(24),9,11,19,21-nonaen-10-yl]methyl}(methyl)oxido-λ^6-sulfanylidene]carbamate] | 163 | 206 | 267
3 | CS(=N)(=O)Cc1cc2cc(c1)OCCCCOc1cc(ccc1F)-c1nc(ncc1F)N2 (racemic) [Example 4, (rac)-3,20-difluoro-10-[(S-methylsulfonimidoyl)methyl]-13,18-dioxa-5,7,25-triazatetracyclo[17.3.1.1^2,6.1^8,12]pentacosa-1(23),2(25),3,5,8(24),9,11,19,21-nonaene] | 177 | 138 | 331
4 | CC(C)(C)OC(=O)N=S(C)(=O)Cc1cc2cc(c1)OCCCCCOc1cc(ccc1F)-c1nc(ncc1F)N2 (racemic) [Example 5, (rac)-tert-butyl [{[3,21-difluoro-13,19-dioxa-5,7,26-triazatetracyclo[18.3.1.1^2,6.1^8,12]hexacosa-1(24),2(26),3,5,8(25),9,11,20,22-nonaen-10-yl]methyl}(methyl)oxido-λ^6-sulfanylidene]carbamate] | 658 | 585 | 479
5 | CS(=N)(=O)Cc1cc2cc(c1)OCCCCCOc1cc(ccc1F)-c1nc(ncc1F)N2 (racemic) [Example 6, (rac)-3,21-difluoro-10-[(S-methylsulfonimidoyl)methyl]-13,19-dioxa-5,7,26-triazatetracyclo[18.3.1.1^2,6.1^8,12]hexacosa-1(24),2(26),3,5,8(25),9,11,20,22-nonaene] | 144 | 121 | 277
6 | CS(=N)(=O)Cc1cc2cc(c1)OCCCCOc1c(F)ccc(c1F)-c1nc(ncc1F)N2 (racemic) [Example 8, (rac)-3,20,23-trifluoro-10-[(S-methylsulfonimidoyl)methyl]-13,18-dioxa-5,7,25-triazatetracyclo[17.3.1.1^2,6.1^8,12]pentacosa-1(23),2(25),3,5,8(24),9,11,19,21-nonaene] | 181 | 196 | 217
7 | CS(=N)(=O)Cc1cc2cc(c1)OCCCOc1cc(ccc1F)-c1nc(ncc1F)N2 (racemic) [Example 10, (rac)-3,19-difluoro-10-[(S-methylsulfonimidoyl)methyl]-13,17-dioxa-5,7,24-triazatetracyclo[16.3.1.1^2,6.1^8,12]tetracosa-1(22),2(24),3,5,8(23),9,11,18,20-nonaene] | 159 | 180 | 238
